The source of these data is ChEMBL document CHEMBL1201862, “PubChem BioAssay data set” (2004).

Test systems include ACHN; CAKI-1; COLO 205; DMS-273; EKVX; HCT-15; K562; KM-20L2; MOLT-4; OVCAR-5; RPMI-8226; SF-295; SF-539; SK-OV-3; UACC-257; UACC-62; LOX IMVI; TK-10.
Common to all, as to experiment: growth of human tumour cells (NCI), 48 h

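Growth conditions: 96-well plates. Treatment: test compound, 48 hours, 5 concentrations. Analysis: linear interpolation between bracketing concentrations; unreached endpoints set to highest concentration. GI50 is the concentration that inhibits growth by half.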 The source made the active and inactive calls. Cut-off read from the data, not from the text of the source: active = GI50 up to about 1.1 µM and inactive = higher.

`Cc1c2n(c3ccccc13)CC1C2N(C)OC1(C)C` (stereo not given): the GI50 in the assay with ACHN is > 100 µM (inactive); with CAKI-1, > 100 µM (inactive); with COLO 205, > 100 µM (inactive); in the assay on DMS-273, > 100 µM (inactive); in the assay with EKVX, > 100 µM (inactive); in the assay on HCT-15 it was greater than 100 µM. Besides, the GI50 in the assay with K562, with KM-20L2, in the assay on MOLT-4, with OVCAR-5, with RPMI-8226 and with SF-295 was > 100 µM (inactive) throughout. In addition, the GI50 in the assay with SF-539, in the assay on SK-OV-3, in the assay on UACC-257 and in the assay with UACC-62 was > 100 µM (inactive) throughout.
Consider `COc1cc(C(N)=O)c(OC)c(OC)c1OC`, for which the GI50 is > 100 µM (inactive) with ACHN; > 100 µM (inactive) in the assay on COLO 205; > 100 µM (inactive) in the assay with DMS-273; > 100 µM (inactive) in the assay with EKVX; greater than 100 µM in the assay with HCT-15; > 100 µM (inactive) in the assay on K562. The GI50 in the assay with KM-20L2, in the assay on LOX IMVI, with MOLT-4, with OVCAR-5, with RPMI-8226 and in the assay with SF-295 was > 100 µM (inactive) throughout. Moreover, the GI50 with SF-539, in the assay with SK-OV-3, in the assay on TK-10 and with UACC-62 was > 100 µM (inactive) throughout.
For `COC1C2C=CC(C2)[C@H]1[N+](=O)[O-]` (stereo not given in full), the GI50 in the assay with ACHN was > 100 µM (inactive); in the assay with CAKI-1, > 100 µM (inactive); in the assay with COLO 205 it was > 100 µM (inactive); in the assay with DMS-273, > 100 µM (inactive); in the assay on EKVX, > 100 µM (inactive); with HCT-15, greater than 100 µM. Besides, the GI50 in the assay on K562, in the assay on KM-20L2, with LOX IMVI, in the assay on MOLT-4, in the assay with OVCAR-5 and in the assay with SF-295 was > 100 µM (inactive) in each case. In addition, the GI50 in the assay with SF-539, in the assay on SK-OV-3, in the assay on TK-10, in the assay on UACC-257 and in the assay on UACC-62 was > 100 µM (inactive) throughout.
Consider `CC(=O)CCn1ncc(Cl)c(Cl)c1=O`, for which the GI50 with ACHN was 17 µM (inactive); with CAKI-1 it was 1.91 µM (inactive); in the assay on DMS-273 it was 17.7 µM (inactive); with EKVX, 18.6 µM (inactive); in the assay with HCT-15, 6.55 µM; in the assay on K562, 3.51 µM (inactive). Further, the GI50 in the assay with KM-20L2 is 16.5 µM (inactive); with LOX IMVI, 15.6 µM (inactive); with MOLT-4 it was 20.6 µM (inactive); in the assay with OVCAR-5 it was 19.1 µM (inactive); in the assay on RPMI-8226, 14.2 µM (inactive); in the assay on SF-295 it was 19.1 µM (inactive). Moreover, the GI50 is 22.2 µM (inactive) in the assay on SF-539, 48.6 µM (inactive) in the assay with TK-10, 16.5 µM (inactive) in the assay on UACC-257 and 17.2 µM (inactive) in the assay on UACC-62.
Turning to `O=C(Cc1nc2ccccc2c(=O)n1-c1ccccc1Cl)c1ccncc1`, the GI50 was > 100 µM (inactive) in the assay on ACHN; > 100 µM (inactive) in the assay on CAKI-1; > 100 µM (inactive) with COLO 205; > 100 µM (inactive) in the assay on DMS-273; > 100 µM (inactive) with EKVX; greater than 100 µM in the assay on HCT-15. Besides, the GI50 in the assay on K562, in the assay on KM-20L2, with LOX IMVI, in the assay on MOLT-4, with OVCAR-5 and in the assay on SF-295 was > 100 µM (inactive) each time. The GI50 in the assay on SF-539, with SK-OV-3, in the assay with TK-10, in the assay on UACC-257 and in the assay with UACC-62 was > 100 µM (inactive) in each case.
`COC(=O)N/N=C(\C)CC(=O)Nc1cccc([N+](=O)[O-])c1`: the GI50 with COLO 205, in the assay on DMS-273, in the assay with EKVX, with K562, in the assay with KM-20L2 and with LOX IMVI was > 100 µM (inactive) throughout. The GI50 with MOLT-4, with OVCAR-5, in the assay with RPMI-8226, with SF-295, with SF-539 and with SK-OV-3 was > 100 µM (inactive) each time. Moreover, the GI50 in the assay on TK-10, with UACC-257 and with UACC-62 was > 100 µM (inactive) in each case.
Turning to `CCOC(=O)C1(c2ccccc2)CCCNCC1` (stereo not given), the GI50 in the assay with ACHN is 85.9 µM (inactive); in the assay with CAKI-1, > 100 µM (inactive); in the assay with COLO 205, > 100 µM (inactive); in the assay on DMS-273, 57.1 µM (inactive); in the assay on EKVX it was > 100 µM (inactive); in the assay with HCT-15 it was 72.9 µM. Also, the GI50 is > 100 µM (inactive) with K562; > 100 µM (inactive) in the assay with KM-20L2; > 100 µM (inactive) in the assay with LOX IMVI; 45.9 µM (inactive) in the assay on MOLT-4; 81.3 µM (inactive) in the assay on OVCAR-5; 88.1 µM (inactive) with RPMI-8226. For the same compound, the GI50 was > 100 µM (inactive) with SF-295; > 100 µM (inactive) in the assay with SK-OV-3; > 100 µM (inactive) in the assay on TK-10; 68.1 µM (inactive) in the assay with UACC-257; > 100 µM (inactive) in the assay on UACC-62.
With `Cc1ccc(S(=O)(=O)C2c3nc4ccccc4cc3-c3nc4ccccc4nc32)cc1` (stereo not given), the GI50 is > 100 µM (inactive) in the assay with ACHN; > 100 µM (inactive) with CAKI-1; > 100 µM (inactive) in the assay with COLO 205; > 100 µM (inactive) in the assay with DMS-273; > 100 µM (inactive) with EKVX; greater than 100 µM with HCT-15. Besides, the GI50 in the assay on K562, with KM-20L2, in the assay on LOX IMVI, with MOLT-4, with OVCAR-5 and in the assay with RPMI-8226 was > 100 µM (inactive) throughout. Moreover, the GI50 in the assay with SF-539 is > 100 µM (inactive); in the assay with SK-OV-3, 0.693 µM (active); with TK-10, > 100 µM (inactive); in the assay on UACC-257, > 100 µM (inactive); in the assay on UACC-62, > 100 µM (inactive).
Regarding `O=C(O)c1c[nH]c2c(ccc3ncccc32)c1=O`, the GI50 in the assay with ACHN was > 100 µM (inactive); in the assay with COLO 205, > 100 µM (inactive); in the assay on DMS-273, > 100 µM (inactive); in the assay on EKVX, > 100 µM (inactive); in the assay on HCT-15, greater than 100 µM; in the assay on K562, > 100 µM (inactive). The GI50 with KM-20L2, in the assay with LOX IMVI, with MOLT-4, in the assay with OVCAR-5, in the assay on SF-539 and in the assay with SK-OV-3 was > 100 µM (inactive) in each case. Moreover, the GI50 in the assay with TK-10 and with UACC-62 was > 100 µM (inactive) in each case.
As to `CN1CCn2c(Br)ccc2C1=O`, the GI50 in the assay with ACHN is > 100 µM (inactive); in the assay on CAKI-1, > 100 µM (inactive); in the assay on COLO 205, > 100 µM (inactive); with DMS-273, > 100 µM (inactive); with EKVX, > 100 µM (inactive); with HCT-15, greater than 100 µM. For the same compound, the GI50 in the assay on K562, in the assay with KM-20L2, in the assay with LOX IMVI, in the assay with MOLT-4, in the assay with RPMI-8226 and with SF-295 was > 100 µM (inactive) each time. Also, the GI50 with SF-539, in the assay with TK-10, with UACC-257 and in the assay on UACC-62 was > 100 µM (inactive) each time.
Regarding `O=[N+]([O-])c1ccc(NSc2ccccc2)cc1`, the GI50 in the assay on ACHN is 33.2 µM (inactive); in the assay on COLO 205, 30.7 µM (inactive); in the assay on DMS-273, 15.4 µM (inactive); with EKVX, 30 µM (inactive); with HCT-15, 19.8 µM; with K562, 23.6 µM (inactive). Further, the GI50 in the assay with KM-20L2 is 31.8 µM (inactive); in the assay with LOX IMVI, 13.1 µM (inactive); in the assay on MOLT-4 it was 10.8 µM (inactive); in the assay with OVCAR-5, 89.7 µM (inactive); in the assay with RPMI-8226, > 10 µM (inactive); with SF-295, 27.6 µM (inactive). Also, the GI50 in the assay with SF-539 is 18.7 µM (inactive); in the assay on SK-OV-3 it was 29.9 µM (inactive); in the assay with TK-10 it was 44.7 µM (inactive); in the assay with UACC-257, 29.3 µM (inactive); in the assay on UACC-62, 20.1 µM (inactive).
For the compound `Cc1nc2cc3nc4ccccc4c(O)c3cc2s1`, the GI50 in the assay with ACHN was > 100 µM (inactive); with CAKI-1 it was > 100 µM (inactive); with COLO 205, > 100 µM (inactive); in the assay with DMS-273, > 100 µM (inactive); with EKVX it was > 100 µM (inactive); with HCT-15, greater than 100 µM. For the same compound, the GI50 in the assay with K562, with KM-20L2, in the assay on MOLT-4, with OVCAR-5, with RPMI-8226 and in the assay with SF-295 was > 100 µM (inactive) each time. In addition, the GI50 in the assay on SF-539, with SK-OV-3, in the assay with TK-10, with UACC-257 and in the assay with UACC-62 was > 100 µM (inactive) each time.
